# Results taken from ChEMBL document CHEMBL4177730, “Rational modification of semaxanib and sunitinib for developing a tumor growth inhibitor targeting ATP binding site of tyrosine kinase” (2018).
# Activity calls are given as the source filed them. No cut-off for these calls is given here.
# Tests used:
# CAKI-1 [1] = experiment: Growth inhibition of human CAKI-1 cells at 10 uM after 48 hrs by sulforhodamine B assay; type: functional, cell-based
# SF-268 = experiment: Growth inhibition of human SF268 cells at 10 uM after 48 hrs by sulforhodamine B assay; type: functional, cell-based
# M14 [2] = experiment: Growth inhibition of human M14 cells after 48 hrs by sulforhodamine B assay; type: functional; details: M14, 48 h
# U-251 [3] = experiment: Growth inhibition of human U251 cells at 10 uM after 48 hrs by sulforhodamine B assay; type: functional, cell-based
# CAKI-1 [4] = experiment: Growth inhibition of human CAKI-1 cells after 48 hrs by sulforhodamine B assay; type: functional; details: CAKI-1, 48 h
# HCT-116 = experiment: Growth inhibition of human HCT116 cells at 10 uM after 48 hrs by sulforhodamine B assay; type: functional, cell-based
# ACHN = experiment: Growth inhibition of human ACHN cells at 10 uM after 48 hrs by sulforhodamine B assay; type: functional, cell-based
# Hs-578T [5] = experiment: Growth inhibition of human Hs 578T cells at 10 uM after 48 hrs by sulforhodamine B assay; type: functional, cell-based
# Malme-3M = experiment: Growth inhibition of human MALME-3M cells at 10 uM after 48 hrs by sulforhodamine B assay; type: functional, cell-based
# NCI-H460 = experiment: Growth inhibition of human NCI-H460 cells after 48 hrs by sulforhodamine B assay; type: functional; details: NCI-H460, 48 h
# NCI/ADR-RES [6] = experiment: Growth inhibition of human NCI-ADR-RES cells at 10 uM after 48 hrs by sulforhodamine B assay; type: functional, cell-based
# OVCAR-4 = experiment: Growth inhibition of human OVCAR4 cells at 10 uM after 48 hrs by sulforhodamine B assay; type: functional, cell-based
# M14 [7] = experiment: Growth inhibition of human M14 cells at 10 uM after 48 hrs by sulforhodamine B assay; type: functional, cell-based
# OVCAR-8 [8] = experiment: Growth inhibition of human OVCAR8 cells at 10 uM after 48 hrs by sulforhodamine B assay; type: functional, cell-based
# A498 = experiment: Growth inhibition of human A498 cells at 10 uM after 48 hrs by sulforhodamine B assay; type: functional, cell-based
# MDA-MB-435 = experiment: Growth inhibition of human MDA-MB-435 cells at 10 uM after 48 hrs by sulforhodamine B assay; type: functional, cell-based
# SNB-19 = experiment: Growth inhibition of human SNB19 cells at 10 uM after 48 hrs by sulforhodamine B assay; type: functional, cell-based
# SK-MEL-5 [9] = experiment: Growth inhibition of human SK-MEL-5 cells at 10 uM after 48 hrs by sulforhodamine B assay; type: functional, cell-based
# SK-MEL-5 [10] = experiment: Growth inhibition of human SK-MEL-5 cells after 48 hrs by sulforhodamine B assay; type: functional; details: SK-MEL-5, 48 h
# NCI/ADR-RES [11] = experiment: Growth inhibition of human NCI-ADR-RES cells after 48 hrs by sulforhodamine B assay; type: functional
# COLO 205 = experiment: Growth inhibition of human COLO205 cells at 10 uM after 48 hrs by sulforhodamine B assay; type: functional, cell-based
# MDA-MB-231 = experiment: Growth inhibition of human MDA-MB-231 cells after 48 hrs by sulforhodamine B assay; type: functional; details: MDA-MB-231, 48 h
# CCRF-CEM = experiment: Growth inhibition of human CCRF-CEM cells at 10 uM after 48 hrs by sulforhodamine B assay; type: functional, cell-based
# Hs-578T [12] = experiment: Growth inhibition of human Hs 578T cells after 48 hrs by sulforhodamine B assay; type: functional
# OVCAR-5 = experiment: Growth inhibition of human OVCAR5 cells after 48 hrs by sulforhodamine B assay; type: functional; details: OVCAR-5, 48 h
# 786-0 = experiment: Growth inhibition of human 786-0 cells at 10 uM after 48 hrs by sulforhodamine B assay; type: functional, cell-based
# HOP-62 = experiment: Growth inhibition of human HOP62 cells at 10 uM after 48 hrs by sulforhodamine B assay; type: functional, cell-based
# OVCAR-8 [13] = experiment: Growth inhibition of human OVCAR8 cells after 48 hrs by sulforhodamine B assay; type: functional; details: OVCAR-8, 48 h
# HCT-15 = experiment: Growth inhibition of human HCT15 cells after 48 hrs by sulforhodamine B assay; type: functional; details: HCT-15, 48 h
# RXF 393 [14] = experiment: Growth inhibition of human RXF393 cells after 48 hrs by sulforhodamine B assay; type: functional; details: RXF 393, 48 h
# SF-295 = experiment: Growth inhibition of human SF295 cells after 48 hrs by sulforhodamine B assay; type: functional; details: SF-295, 48 h
# NCI-H322M = experiment: Growth inhibition of human NCI-H322M cells after 48 hrs by sulforhodamine B assay; type: functional
# K562 = experiment: Growth inhibition of human K562 cells at 10 uM after 48 hrs by sulforhodamine B assay; type: functional, cell-based
# RPMI-8226 = experiment: Growth inhibition of human RPMI8226 cells after 48 hrs by sulforhodamine B assay; type: functional; details: RPMI-8226, 48 h
# U-251 [15] = experiment: Growth inhibition of human U251 cells after 48 hrs by sulforhodamine B assay; type: functional; details: U-251, 48 h
# UO-31 [16] = experiment: Growth inhibition of human UO31 cells at 10 uM after 48 hrs by sulforhodamine B assay; type: functional, cell-based
# UO-31 [17] = experiment: Growth inhibition of human UO31 cells after 48 hrs by sulforhodamine B assay; type: functional; details: UO-31, 48 h
# RXF 393 [18] = experiment: Growth inhibition of human RXF393 cells at 10 uM after 48 hrs by sulforhodamine B assay; type: functional, cell-based
# T47D = experiment: Growth inhibition of human T47D cells after 48 hrs by sulforhodamine B assay; type: functional
# EKVX = experiment: Growth inhibition of human EKVX cells at 10 uM after 48 hrs by sulforhodamine B assay; type: functional, cell-based
# DU-145 = experiment: Growth inhibition of human DU145 cells after 48 hrs by sulforhodamine B assay; type: functional; details: DU-145, 48 h
# [19] = read-out: LC50 (the source's name)
structure (smiles),measurement,setting,value
O=C1/C(=C\c2cccn2Cc2ccccc2)c2ccccc2N1c1c(Cl)cccc1Cl,growth inhibition (GI),CAKI-1 [1],Active
same,growth inhibition (GI),SF-268,Active
same,GI50,M14 [2],> 100 µM
same,TGI,M14 [2],> 100 µM
same,CC50,M14 [2]; [19],> 100 µM
same,growth inhibition (GI),U-251 [3],Active
same,GI50,CAKI-1 [4],8.31 µM
same,TGI,CAKI-1 [4],> 100 µM
same,CC50,CAKI-1 [4]; [19],> 100 µM
same,growth inhibition (GI),HCT-116,Active
same,growth inhibition (GI),ACHN,Active
same,growth inhibition (GI),Hs-578T [5],Active
same,growth inhibition (GI),Malme-3M,Active
same,GI50,NCI-H460,4.16 µM
same,TGI,NCI-H460,> 100 µM
same,CC50,NCI-H460; [19],> 100 µM
same,growth inhibition (GI),NCI/ADR-RES [6],Active
same,growth inhibition (GI),OVCAR-4,Active
same,growth inhibition (GI),M14 [7],Active
same,growth inhibition (GI),OVCAR-8 [8],Active
same,growth inhibition (GI),A498,Active
same,growth inhibition (GI),MDA-MB-435,Active
same,growth inhibition (GI),SNB-19,Active
same,growth inhibition (GI),SK-MEL-5 [9],Active
same,GI50,SK-MEL-5 [10],2.13 µM
same,TGI,SK-MEL-5 [10],> 100 µM
same,CC50,SK-MEL-5 [10]; [19],> 100 µM
same,GI50,NCI/ADR-RES [11],> 100 µM
same,TGI,NCI/ADR-RES [11],> 100 µM
same,CC50,NCI/ADR-RES [11]; [19],> 100 µM
same,growth inhibition (GI),COLO 205,Active
same,GI50,MDA-MB-231,5.88 µM
same,TGI,MDA-MB-231,> 100 µM
same,CC50,MDA-MB-231; [19],> 100 µM
same,growth inhibition (GI),CCRF-CEM,Active
same,GI50,Hs-578T [12],> 100 µM
same,TGI,Hs-578T [12],> 100 µM
same,CC50,Hs-578T [12]; [19],> 100 µM
same,GI50,OVCAR-5,3.89 µM
same,TGI,OVCAR-5,> 100 µM
same,CC50,OVCAR-5; [19],> 100 µM
same,growth inhibition (GI),786-0,Active
same,growth inhibition (GI),HOP-62,Active
same,GI50,OVCAR-8 [13],> 100 µM
same,TGI,OVCAR-8 [13],> 100 µM
same,CC50,OVCAR-8 [13]; [19],> 100 µM
same,GI50,HCT-15,0.37 µM
same,TGI,HCT-15,> 100 µM
same,CC50,HCT-15; [19],> 100 µM
same,GI50,RXF 393 [14],> 100 µM
same,TGI,RXF 393 [14],> 100 µM
same,CC50,RXF 393 [14]; [19],> 100 µM
same,GI50,SF-295,> 100 µM
same,TGI,SF-295,> 100 µM
same,CC50,SF-295; [19],> 100 µM
same,GI50,NCI-H322M,14.8 µM
same,TGI,NCI-H322M,> 100 µM
same,CC50,NCI-H322M; [19],> 100 µM
same,growth inhibition (GI),K562,Active
same,GI50,RPMI-8226,1.28 µM
same,TGI,RPMI-8226,> 100 µM
same,CC50,RPMI-8226; [19],> 100 µM
same,GI50,U-251 [15],> 100 µM
same,TGI,U-251 [15],> 100 µM
same,CC50,U-251 [15]; [19],> 100 µM
same,growth inhibition (GI),UO-31 [16],Active
same,GI50,UO-31 [17],3.16 µM
same,TGI,UO-31 [17],> 100 µM
same,CC50,UO-31 [17]; [19],> 100 µM
same,growth inhibition (GI),RXF 393 [18],Active
same,GI50,T47D,0.21 µM
same,TGI,T47D,1.86 µM
same,CC50,T47D; [19],> 100 µM
same,growth inhibition (GI),EKVX,Active
same,GI50,DU-145,> 100 µM
same,TGI,DU-145,> 100 µM
same,CC50,DU-145; [19],> 100 µM
